Data set [1] has as its system Streptococcus pyogenes (ATCC700294). Kind of data set: Antimicrobial activity, CLSI broth microdilution MIC. Format: cell-based. Conditions: read-out: MIC S. pyogenes. The text has this:
(§1) The Clinical and Laboratory Standards (CLSI) recommended procedure (Document M7-[…], Methods for Dilution Susceptibility Tests for Bacteria that Grow Aerobically) by broth microdilution was used to determine the antimicrobial activity of compounds against Escherichia coli (ATCC25922), Staphylococcus aureus (ATCC13709), Streptococcus pneumoniae (ATCC49619), Streptococcus pyogenes (ATCC700294), Moraxella catarrhalis (ATCC23246) and Haemophilus influenzae (ATCC49247). The minimum inhibitory concentration (MIC) is determined as the lowest concentration of compound that inhibited visible growth.

Data set [2] concerns Escherichia coli (ATCC25922). The description is as above. Format: cell-based.
Text: as §1

Data set [3] relates to Haemophilus influenzae (ATCC49247). The data set is described as above. It counts as cell-based. As to conditions: read-out: MIC H. influenzae.
Text: as §1

In data set [4] the test system is Streptococcus pneumoniae (ATCC49619). The data set is described as above. It counts as cell-based. As to conditions: read-out: MIC S. penumoniae.
Text: as §1

Data set [5] has as its system Staphylococcus aureus (ATCC13709). The description is as above. It counts as cell-based. Conditions: read-out: MIC S. aureus.
Text: as §1

Data set [6] deals with Moraxella catarrhalis (ATCC23246). The description is as above. It counts as cell-based.
Text: as §1

A short description of the next data set: Pharmacokinetics in dog. Format: in vivo, Beagle dogs.
In data set [7] the test system is neutrophil accumulation in BALF of LPS-challenged BALB/cJ mice. Put plainly: LPS-induced pulmonary neutrophilia. Format: in vivo, mouse (BALB/cJ). As to conditions: 200 mg/kg intraperitoneally 2 h prior LPS, BALF 24 h after LPS. On the procedure: Vehicle, azithromycin, and compound 4 were administered intraperitoneally at a dose of 200 mg/kg (b.w.) to 10-week-old male BALB/cJ mice (Charles River, Lyon, France) 2 h before intranasal challenge with 2 μg of LPS from E. coli. Then, 24 h after LPS application animals were euthanized and bronchoalveolar lavage was performed. Total number of cells in BALF was counted with a hematological analyzer (Sysmex SF 3000, Sysmex Corp., Kobe, Japan). Percentages of neutrophils were determined by morphological examination of at least 200 cells on smears prepared by cytocentrifugation (Cytospin-3, Thermo Fisher Scientific Inc, Waltham, MA, USA) and stained with Kwik-Diff staining set (Thermo Fisher Scientific Inc., USA).
All values are presented as means ± S.E.M. To define statistically significant differences in cell numbers among vehicle-treated and macrolide-treated mice the data were subjected to one-way ANOVA followed by Dunnett’s Multiple Comparison Test using GraphPad Prism version 5.00 for Windows (GraphPad Software, San Diego, CA, USA). The level of significance was set at p < 0.05 in all cases.

The next data set concerns the target T1, recombinant human CYP3A4 (Homo sapiens, UniProt P08684).
T1 construct: purchased Cypex
Put plainly: In vitro cytochrome inhibition. It counts as in vitro ADME. As to conditions: recombinant human CYP, fluorescent probe; read-out: IC50 inhibition of cytochrome 3A4. On the procedure:
(§2) Test compounds were incubated using a concentration range from 0.1 to 100 µM with recombinant human CYP1A2, 2C9, 2C19, 2D6 and 3A4 (Cypex). The compounds were preincubated at 37 °C for 5 or 10 min with the CYP enzyme isoforms, in the presence of 50 mM phosphate buffer (pH 7.4) and fluorescent probes. The incubations were started by addition of a cofactor solution containing NADP, glucose 6-phosphate and glucose 6-phosphate dehydrogenase. The plates were incubated for 10 min at 37 °C reading the fluorescence signal on a plate reader throughout. The fluorescence data were then used to calculate the IC50 values for each compound.

Data set [8] deals with T2, recombinant human CYP2C19 (Homo sapiens, UniProt P33261).
T2 construct: purchased Cypex
T2 sequence (P33261 whole entry): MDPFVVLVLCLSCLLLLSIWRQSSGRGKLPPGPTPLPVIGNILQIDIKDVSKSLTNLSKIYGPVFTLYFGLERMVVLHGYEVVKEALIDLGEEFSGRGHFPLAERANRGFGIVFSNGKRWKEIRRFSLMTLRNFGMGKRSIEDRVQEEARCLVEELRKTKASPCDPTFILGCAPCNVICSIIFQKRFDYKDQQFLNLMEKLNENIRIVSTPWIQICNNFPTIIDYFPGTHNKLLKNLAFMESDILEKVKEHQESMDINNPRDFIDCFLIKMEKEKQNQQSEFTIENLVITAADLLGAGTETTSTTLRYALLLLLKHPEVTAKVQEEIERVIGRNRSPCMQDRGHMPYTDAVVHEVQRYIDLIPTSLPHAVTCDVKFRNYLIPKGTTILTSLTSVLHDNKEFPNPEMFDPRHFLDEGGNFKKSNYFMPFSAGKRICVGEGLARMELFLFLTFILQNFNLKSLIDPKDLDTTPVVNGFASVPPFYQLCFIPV
Put plainly: In vitro cytochrome inhibition. It counts as in vitro ADME. Conditions: recombinant human CYP, fluorescent probe; read-out: IC50 inhibition of cytochrome 2C19. On the procedure: as §2

For the next data set, the target named is T3, recombinant human CYP2D6 (Homo sapiens, UniProt P10635).
T3 construct: purchased Cypex
T3 sequence (P10635 whole entry): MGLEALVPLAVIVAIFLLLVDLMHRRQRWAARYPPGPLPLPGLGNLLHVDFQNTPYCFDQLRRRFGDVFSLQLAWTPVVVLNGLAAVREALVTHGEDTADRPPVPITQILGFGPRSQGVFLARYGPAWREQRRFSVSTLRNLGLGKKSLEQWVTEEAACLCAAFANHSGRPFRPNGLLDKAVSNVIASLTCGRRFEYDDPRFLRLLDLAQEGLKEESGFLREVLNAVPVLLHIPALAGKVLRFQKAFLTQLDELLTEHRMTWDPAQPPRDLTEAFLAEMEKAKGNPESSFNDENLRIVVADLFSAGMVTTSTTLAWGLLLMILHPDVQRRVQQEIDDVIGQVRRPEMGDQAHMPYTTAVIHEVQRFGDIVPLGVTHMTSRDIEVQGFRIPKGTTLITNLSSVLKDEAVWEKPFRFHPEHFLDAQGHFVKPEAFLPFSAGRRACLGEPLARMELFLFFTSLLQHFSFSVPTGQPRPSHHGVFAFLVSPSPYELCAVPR
Put plainly: In vitro cytochrome inhibition. Format: in vitro ADME. Conditions: recombinant human CYP, fluorescent probe; read-out: IC50 inhibition of cytochrome 2D6. As for the experimental part: as §2

In the next data set the target is T4, recombinant human CYP2C9 (Homo sapiens, UniProt P11712).
T4 construct: purchased Cypex
T4 sequence (P11712 whole entry): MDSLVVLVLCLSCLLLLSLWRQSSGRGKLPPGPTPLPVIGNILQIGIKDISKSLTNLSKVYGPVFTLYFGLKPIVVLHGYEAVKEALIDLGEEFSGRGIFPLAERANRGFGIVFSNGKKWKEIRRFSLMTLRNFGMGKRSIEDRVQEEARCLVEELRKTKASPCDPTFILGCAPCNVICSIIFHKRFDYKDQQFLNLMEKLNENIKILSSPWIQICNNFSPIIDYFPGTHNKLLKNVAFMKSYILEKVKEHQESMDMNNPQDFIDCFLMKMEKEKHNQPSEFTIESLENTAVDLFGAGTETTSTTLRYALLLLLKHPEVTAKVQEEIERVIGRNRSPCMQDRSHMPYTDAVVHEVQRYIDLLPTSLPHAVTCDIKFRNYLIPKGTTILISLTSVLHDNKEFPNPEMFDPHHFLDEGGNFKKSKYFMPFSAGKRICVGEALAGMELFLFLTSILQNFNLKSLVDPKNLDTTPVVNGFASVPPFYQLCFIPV
Put plainly: In vitro cytochrome inhibition. It counts as in vitro ADME. Conditions: recombinant human CYP, fluorescent probe; read-out: IC50 inhibition of cytochrome 2C9. On the procedure: as §2

Another data set concerns the target T5, recombinant human CYP1A2 (Homo sapiens, UniProt P05177).
T5 construct: purchased Cypex
T5 sequence (P05177 1-516): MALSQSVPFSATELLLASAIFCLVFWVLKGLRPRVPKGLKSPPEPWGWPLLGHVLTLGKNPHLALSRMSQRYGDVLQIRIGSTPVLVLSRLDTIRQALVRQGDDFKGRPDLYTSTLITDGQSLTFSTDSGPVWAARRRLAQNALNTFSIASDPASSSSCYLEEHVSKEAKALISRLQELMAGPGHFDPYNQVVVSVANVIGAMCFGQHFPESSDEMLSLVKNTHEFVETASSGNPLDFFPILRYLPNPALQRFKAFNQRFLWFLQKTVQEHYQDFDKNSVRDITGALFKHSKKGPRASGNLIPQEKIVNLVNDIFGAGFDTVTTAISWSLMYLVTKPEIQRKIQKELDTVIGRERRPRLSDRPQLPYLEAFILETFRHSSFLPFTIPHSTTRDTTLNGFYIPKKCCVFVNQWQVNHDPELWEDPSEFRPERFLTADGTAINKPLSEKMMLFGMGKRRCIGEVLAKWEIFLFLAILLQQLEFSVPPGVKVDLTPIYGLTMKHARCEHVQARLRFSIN
Put plainly: In vitro cytochrome inhibition. Format: in vitro ADME. Conditions: recombinant human CYP, fluorescent probe; read-out: IC50 inhibition of cytochrome 1A2. On the procedure:
as §2

Data set [9] has as its system neutrophil accumulation in BALF of cigarette-smoke-challenged mice. Kind of data set: Cigarette-smoke-induced pulmonary inflammation. Conditions: oral dosing 2 h prior smoke challenge on each smoke day. It counts as in vivo, mouse.
A short description of data set [10]: Pharmacokinetics in mouse. It counts as in vivo, Balb/c mice. On the procedure:
(§3) Pharmacokinetic profiles were determined in male Balb/c mice and CD Sprague-Dawley rats (Charles River Laboratories, Germany), following single oral (p.o.) and single intravenous (i.v.) bolus administration. The compound was administered at a dose of […] i.v. and 10 mg/kg p.o. Blood was obtained by serial blood sampling from the tail vein over a range of time points up to 30 h postdose. Samples were extracted by protein precipitation and subjected to quantitative analysis by LC-MS/MS using compound-specific mass transitions. Drug concentration−time profiles were generated and noncompartmental PK analysis used to generate estimates of half-life, clearance, volume of distribution, and oral bioavailability.

A short description of a further data set: Pharmacokinetics in rat. Format: in vivo, Sprague Dawley rats. As for the experimental part:
as §3

Structures are written as SMILES. ≈ marks a conversion by molar mass, not a printed value. Where “and” joins values, the source holds several entries; their conditions need not be identical. Equal values may be shown once.

T1 sequence (P08684 whole entry): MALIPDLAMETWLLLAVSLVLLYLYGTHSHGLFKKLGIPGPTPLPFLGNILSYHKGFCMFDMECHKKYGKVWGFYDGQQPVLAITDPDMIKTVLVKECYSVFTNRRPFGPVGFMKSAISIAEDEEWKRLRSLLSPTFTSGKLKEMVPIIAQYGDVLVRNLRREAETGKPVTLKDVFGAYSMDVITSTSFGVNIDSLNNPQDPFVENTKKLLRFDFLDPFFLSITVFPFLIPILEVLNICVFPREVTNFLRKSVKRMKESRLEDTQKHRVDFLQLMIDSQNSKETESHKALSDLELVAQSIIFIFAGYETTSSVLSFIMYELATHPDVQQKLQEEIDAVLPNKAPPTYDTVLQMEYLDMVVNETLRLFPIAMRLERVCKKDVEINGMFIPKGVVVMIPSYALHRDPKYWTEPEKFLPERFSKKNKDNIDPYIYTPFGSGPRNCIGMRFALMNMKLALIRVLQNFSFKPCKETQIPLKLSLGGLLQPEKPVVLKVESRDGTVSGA

With `CC[C@H]1OC(=O)[C@H](C)[C@@H](O[C@H]2C[C@@](C)(OC)[C@@H](O)[C@@H](C)O2)[C@H](C)[C@@H](O[C@H]2C[C@@H](N(C)C)C[C@@H](C)O2)[C@](C)(O)C[C@@H](C)CN(C)[C@H](C)[C@@H](O)[C@]1(C)O` [compound 4, 2′-dehydroxy-5″-epi-azithromycin], the MIC in [1], in [2], in data set [3], in [4], in [5] and in data set [6] was more than 64 µg/mL in each case. Besides, the “Oral F” value in the data set “Pharmacokinetics in dog” was 62% and 62 ± 10%; in data set [10] (10 mg/kg p.o., 10 mg/kg), 12% and 12.4 ± 4.2%. The “systemic clearance as % of liver blood flow” value is reported as ~18 % of liver blood flow in “Pharmacokinetics in dog”, “ca. 4.6 % of liver blood flow” in data set [10] and ~17.1 % of liver blood flow in the data set “Pharmacokinetics in rat”. Besides, the half-life in the data set “Pharmacokinetics in dog” (beagle, in vivo) is approximately 1260 min; in [10] (male, Balb/c, whole blood) it was approximately 660 min; in “Pharmacokinetics in rat” (Sprague-Dawley, whole blood), approximately 900 min. Further, the clearance in “Pharmacokinetics in dog” (beagle, in vivo, intravenous) worked out at 5.5 ± 0.9 mL/min/kg; in data set [10] (male, Balb/c, whole blood, iv, 2 mg/mg, blood), 4.1 ± 1.1 mL/min/kg; in “Pharmacokinetics in rat” (Sprague-Dawley, whole blood, iv, 2 mg/mg, blood), 14.5 ± 8.5 mL/min/kg. In addition, the Vd in the data set “Pharmacokinetics in dog” (beagle, in vivo, intravenous, read-out: Vss) was determined as 6.9 ± 2 L/kg; in data set [10] (male, Balb/c, whole blood, intravenous, 2 mg/mg, read-out: Vss), 2 ± 0.8 L/kg; in the data set “Pharmacokinetics in rat” (Sprague-Dawley, whole blood, intravenous, 2 mg/mg, read-out: Vss) it was 11.7 ± 1.9 L/kg. Also, the “Neutrophil accumulation in BALF after intranasal LPS challenge” value in data set [7] is listed as “inhibited neutrophil accumulation”. The IC50 (on recombinant human CYP3A4; in data set [8]; at recombinant human CYP2D6; on recombinant human CYP2C9; on recombinant human CYP1A2) was more than 33 µM throughout. Further, in [9], the “Neutrophil accumulation in BALF after cigarette-smoke challenge” value is “dose-dependently inhibited the accumulation of neutrophils”.

With `CC[C@H]1OC(=O)[C@H](C)[C@@H](O[C@H]2C[C@@](C)(OC)[C@@H](O)[C@H](C)O2)[C@H](C)[C@@H](O[C@H]2C[C@@H](N(C)C)C[C@@H](C)O2)[C@](C)(O)C[C@@H](C)CN(C)[C@H](C)[C@@H](O)[C@]1(C)O` [compound 3, 2 ′-dehydroxy azithromycin], the MIC is 64 µg/mL (≈ 87.3 µM) in data set [1]; more than 64 µg/mL in [2]; more than 64 µg/mL in data set [3]; 32 µg/mL (≈ 43.7 µM) in data set [4]; more than 64 µg/mL in data set [5]; 16 µg/mL (≈ 21.8 µM) in data set [6].

On to `CC[C@H]1OC(=O)[C@H](C)[C@@H](O[C@H]2C[C@@](C)(OC)[C@@H](O)[C@H](C)O2)[C@H](C)[C@@H](O[C@@H]2O[C@H](C)C[C@H](N(C)C)[C@H]2O)[C@](C)(O)C[C@@H](C)CN(C)[C@H](C)[C@@H](O)[C@]1(C)O` [AZM, azithromycin], for which the MIC in data set [1] was less than 0.125 µg/mL; in data set [2], 2 µg/mL (≈ 2.67 µM); in data set [3], 2 µg/mL (≈ 2.67 µM); in data set [4], less than 0.125 µg/mL; in [5], 0.5 µg/mL (≈ 0.668 µM); in data set [6], less than 0.125 µg/mL. Further, the “Neutrophil accumulation in BALF after cigarette-smoke challenge” value in [9] is “dose-dependently inhibited the accumulation of neutrophils”.

The values above are taken from paper PMC8838534, “Unprecedented Epimerization of an Azithromycin Analogue: Synthesis, Structure and Biological Activity of 2′-Dehydroxy-5″-Epi-Azithromycin” (Molecules, 2022).
